Assay results: PubChem BioAssay AID1963862 (Molecular Pharmacology Branch, DTP, NCI, 2024)

Tested on: KRAS patient-derived spheroids with HUVEC/MSC, viability
Assay: Anticancer human tumor 941728-121-R-J1-PDC patient-derived lung adenocarcinoma cell line growth inhibition [KRAS2]
Settings: for IC50: curve of first compound; for viability, T/C: stronger effect = lower value
Summary of the method: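 Combination screen of spheroid viability in tumor-cell co-cultures with endothelial (HUVEC) and mesenchymal stem cell stroma. Each agent was tested in half-log dilutions, topping at clinical Cmax or at 10 microM without a known Cmax.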

[1] = second compound 0.0316 µM, first compound 0.000316 µM
[2] = second compound 0.0316 µM, first compound 0.001 µM
[3] = second compound 0.0316 µM, first compound 0.00316 µM
[4] = second compound 0.0316 µM, first compound 0.01 µM
[5] = second compound 0.0316 µM, first compound 0.0316 µM
[6] = second compound 0.1 µM, first compound 0.000316 µM
[7] = second compound 0.1 µM, first compound 0.001 µM
[8] = second compound 0.1 µM, first compound 0.00316 µM
[9] = second compound 0.1 µM, first compound 0.01 µM
[10] = second compound 0.1 µM, first compound 0.0316 µM
[11] = second compound 0.316 µM, first compound 0.000316 µM
[12] = second compound 0.316 µM, first compound 0.001 µM
[13] = second compound 0.316 µM, first compound 0.00316 µM
[14] = second compound 0.316 µM, first compound 0.01 µM
[15] = second compound 0.316 µM, first compound 0.0316 µM
[16] = second compound 1 µM, first compound 0.000316 µM
[17] = second compound 1 µM, first compound 0.001 µM
[18] = second compound 1 µM, first compound 0.00316 µM
[19] = second compound 1 µM, first compound 0.01 µM
[20] = second compound 1 µM, first compound 0.0316 µM
[21] = second compound 3.16 µM, first compound 0.000316 µM
[22] = second compound 3.16 µM, first compound 0.001 µM
[23] = second compound 3.16 µM, first compound 0.00316 µM
[24] = second compound 3.16 µM, first compound 0.01 µM
[25] = second compound 3.16 µM, first compound 0.0316 µM
[26] = second compound 0.0316 µM, first compound 0.1 µM
[27] = second compound 0.1 µM, first compound 0.1 µM
[28] = second compound 0.316 µM, first compound 0.1 µM
[29] = second compound 1 µM, first compound 0.1 µM
[30] = second compound 3.16 µM, first compound 0.1 µM
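Note: spheroids exposed to agents for seven days before readout.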

CC(=O)Nc1cccc(-n2c(=O)n(C3CC3)c(=O)c3c(Nc4ccc(I)cc4F)n(C)c(=O)c(C)c32)c1 + C=CC(=O)N1CCN(c2nc(OCC3CCCN3C)nc3c2CCN(c2cccc4cccc(C)c24)C3)CC1CC#N
IC50 (second compound 0.0316 µM): < 0.1 nM
IC50 (second compound 0.1 µM): < 0.1 nM
IC50 (second compound 0.316 µM): < 0.1 nM
IC50 (second compound 1 µM): < 0.1 nM
IC50 (second compound 3.16 µM): < 0.1 nM
viability, T/C (second compound 0.0316 µM, first compound 0.0001 µM): 31%
viability, T/C [1]: 26.4%
viability, T/C [2]: 25.9%
viability, T/C [3]: 25.4%
viability, T/C [4]: 24.2%
viability, T/C [5]: 25.1%
viability, T/C (second compound 0.1 µM, first compound 0.0001 µM): 30.9%
viability, T/C [6]: 26.7%
viability, T/C [7]: 25.4%
viability, T/C [8]: 25.5%
viability, T/C [9]: 21.2%
viability, T/C [10]: 22%
viability, T/C (second compound 0.316 µM, first compound 0.0001 µM): 29.2%
viability, T/C [11]: 27.2%
viability, T/C [12]: 23.4%
viability, T/C [13]: 24.1%
viability, T/C [14]: 22.1%
viability, T/C [15]: 22.9%
viability, T/C (second compound 1 µM, first compound 0.0001 µM): 24%
viability, T/C [16]: 22.9%
viability, T/C [17]: 19%
viability, T/C [18]: 21.3%
viability, T/C [19]: 20%
viability, T/C [20]: 22.6%
viability, T/C (second compound 3.16 µM, first compound 0.0001 µM): 0.84%
viability, T/C [21]: 0.35%
viability, T/C [22]: 1.24%
viability, T/C [23]: 0.89%
viability, T/C [24]: 1.14%
viability, T/C [25]: 0.53%

CC(C)n1nc(-c2ccc3oc(N)nc3c2)c2c(N)ncnc21 + C=CC(=O)N1CCN(c2nc(OCC3CCCN3C)nc3c2CCN(c2cccc4cccc(C)c24)C3)CC1CC#N
IC50 (second compound 0.0316 µM): < 0.316 nM
IC50 (second compound 0.1 µM): < 0.316 nM
IC50 (second compound 0.316 µM): < 0.316 nM
IC50 (second compound 1 µM): < 0.316 nM
IC50 (second compound 3.16 µM): < 0.316 nM
viability, T/C [1]: 35.4%
viability, T/C [2]: 32.9%
viability, T/C [3]: 24.6%
viability, T/C [4]: 17.3%
viability, T/C [5]: 11.5%
viability, T/C [26]: 11%
viability, T/C [6]: 35.3%
viability, T/C [7]: 28.8%
viability, T/C [8]: 28%
viability, T/C [9]: 15.9%
viability, T/C [10]: 11.1%
viability, T/C [27]: 12.5%
viability, T/C [11]: 38.2%
viability, T/C [12]: 33.9%
viability, T/C [13]: 26.6%
viability, T/C [14]: 16.8%
viability, T/C [15]: 13%
viability, T/C [28]: 9.77%
viability, T/C [16]: 33.1%
viability, T/C [17]: 29%
viability, T/C [18]: 20%
viability, T/C [19]: 11.9%
viability, T/C [20]: 9.99%
viability, T/C [29]: 10.3%
viability, T/C [21]: 2.26%
viability, T/C [22]: 0.92%
viability, T/C [23]: 0.32%
viability, T/C [24]: 0.8%
viability, T/C [25]: 0.12%
viability, T/C [30]: 0.23%

CC1(C)CCC(CN2CCN(c3ccc(C(=O)NS(=O)(=O)c4ccc(NCC5CCOCC5)c([N+](=O)[O-])c4)c(Oc4cnc5[nH]ccc5c4)c3)CC2)=C(c2ccc(Cl)cc2)C1 + C=CC(=O)N1CCN(c2nc(OCC3CCCN3C)nc3c2CCN(c2cccc4cccc(C)c24)C3)CC1CC#N
IC50 (second compound 0.0316 µM): < 31.6 nM
IC50 (second compound 0.1 µM): < 31.6 nM
IC50 (second compound 0.316 µM): < 31.6 nM
IC50 (second compound 1 µM): < 31.6 nM
IC50 (second compound 3.16 µM): < 31.6 nM
viability, T/C [5]: 26.6%
viability, T/C [26]: 26.4%
viability, T/C (second compound 0.0316 µM, first compound 0.316 µM): 26.4%
viability, T/C (second compound 0.0316 µM, first compound 1 µM): 24%
viability, T/C (second compound 0.0316 µM, first compound 3.16 µM): 6%
viability, T/C (second compound 0.0316 µM, first compound 10 µM): 4.38%
viability, T/C [10]: 26.5%
viability, T/C [27]: 23.7%
viability, T/C (second compound 0.1 µM, first compound 0.316 µM): 24.9%
viability, T/C (second compound 0.1 µM, first compound 1 µM): 25.1%
viability, T/C (second compound 0.1 µM, first compound 3.16 µM): 5.88%
viability, T/C (second compound 0.1 µM, first compound 10 µM): 2.8%
viability, T/C [15]: 25.2%
viability, T/C [28]: 25.5%
viability, T/C (second compound 0.316 µM, first compound 0.316 µM): 25%
viability, T/C (second compound 0.316 µM, first compound 1 µM): 25.8%
viability, T/C (second compound 0.316 µM, first compound 3.16 µM): 5.25%
viability, T/C (second compound 0.316 µM, first compound 10 µM): 3.74%
viability, T/C [20]: 22.6%
viability, T/C [29]: 21.4%
viability, T/C (second compound 1 µM, first compound 0.316 µM): 21.4%
viability, T/C (second compound 1 µM, first compound 1 µM): 21.4%
viability, T/C (second compound 1 µM, first compound 3.16 µM): 5.13%
viability, T/C (second compound 1 µM, first compound 10 µM): 1.61%
viability, T/C [25]: 0.12%
viability, T/C [30]: 0.13%
viability, T/C (second compound 3.16 µM, first compound 0.316 µM): 0.1%
viability, T/C (second compound 3.16 µM, first compound 1 µM): 0.09%
viability, T/C (second compound 3.16 µM, first compound 3.16 µM): 0.08%
viability, T/C (second compound 3.16 µM, first compound 10 µM): 0.12%
